The data set is described as follows: gradient 5% acetonitrile 3 min, to 50% in 2 min, to 85% in 15 min, held 3 min, 100 µL/min. To be noted: column: Zorbax Extend-C18 2.1 x 50 mm; eluents: water / acetonitrile, 0.1% formic acid. The gist of the method:
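The mobile phases were water and acetonitrile, each with 0.1% formic acid, pumped at 100 μL/min through a Zorbax Extend-C18 column (2.1 × 50 mm, 1.8 μm). Pure standards were injected as mixtures of ~100 molecules and detected by a quadrupole time-of-flight mass spectrometer in positive and negative ionization mode. Retention time came from computationally picked adduct peaks, each inspected by hand.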
As to `O=C1NCCCCCCN(C(=O)Nc2ccccc2)[C@H]2CCCC[C@@H]12`, the RP-LC retention time is 805 s.
In the case of `Cc1ccc(NC(=O)Nc2nccn(-c3cccc(F)c3)c2=O)cc1C` it was 1020 s; in that of `CC(=O)N1CCc2cc(N3CC(C(=O)NCc4cccc(Cl)c4)CC3=O)ccc21` (configuration not stated), 702 s; in that of `CCN1CCN(CCNC(=O)CN2C(=O)CSc3cccn3-c3ccccc32)CC1`, 600 s.
Then `Cc1cc(C(=O)N(C)C2CCc3nnc(C)n3CC2)c(C)n1Cc1ccco1` (configuration not stated), with 654 s; and `O=C(c1cccc(F)c1)N1CCC[C@H]1c1nc(-c2ccccc2)n[nH]1`, with 685 s; and `Cn1c(=O)n(CCN2CCCCC2)c(=O)c2c1nc1n2CCCN1C1CCCCC1`, with 681 s.
On to `Cc1cc(C)cc(NC(=O)C2CCCN(c3nc4ccsc4c(=O)n3Cc3ccc(F)cc3)C2)c1` (configuration not stated), for which the RP-LC retention time came to 1090 s.
Take `COCCOC(=O)C1=C(C)NC2=C(C(=O)CC(C)(C)C2)C1c1cccc(OC)c1OC` (configuration not stated): the RP-LC retention time is 787 s.
In turn, `CC(C)c1ccc(-c2csc(Nc3ccc(S(N)(=O)=O)cc3)n2)cc1` had an RP-LC retention time of 1010 s.
In the case of `CCNC(=O)C1(CCO)CCN(c2ncccn2)C1` (configuration not stated) it was 539 s; in that of `COC(=O)c1cc2ccsc2n1CC(=O)Nc1ccc(F)cc1F`, 949 s; in that of `CCOc1cc(C2C(C(=O)N3CCCCC3)=C(C)NC3=C2C(=O)CCC3)ccc1OC(C)=O` (configuration not stated), 710 s.
For the molecule `CCN(CC)c1ncc2c(n1)CCC(C(=O)Nc1ccc(C(=O)OC)cc1)C2` (configuration not stated), the RP-LC retention time is 736 s.
In the case of `COc1ccc2[nH]c3c(c2c1)CCN1C(=O)N(c2cccc(Cl)c2)C(=O)C31C` (configuration not stated) it was 1030 s.
Then `CC1CCN(S(=O)(=O)c2ccc3nn(Cc4cccc(F)c4)c(=O)n3c2)CC1`, with 781 s.
`Cn1nc(-c2nnc(-c3ccccc3)o2)c2c1CCN(S(=O)(=O)c1ccc(C#N)cc1)C2` displayed an RP-LC retention time of 897 s.
Turning to `CCc1cc(=O)n(CC(=O)Nc2ccc(C)c(C)c2)c(N2CCOCC2)n1`, the RP-LC retention time amounted to 798 s.
With `CC1C(=O)NCCN1C(=O)c1ccc(Oc2ccccc2)cc1` (configuration not stated), the RP-LC retention time was 670 s.
Then `COc1cc([C@@H]2c3cc4c(cc3[C@@H](O[C@@H]3O[C@@H]5COC(c6cccs6)O[C@H]5[C@H](O)[C@H]3O)[C@H]3COC(=O)[C@H]23)OCO4)cc(OC)c1O` (some centres not stated), with 780 s; and `COc1cccc(NC(=O)c2c[nH]c3nc(C)ccc3c2=O)c1`, with 791 s.
Then `O=C(CCc1c(-c2ccc(F)cc2)nc2ccccn12)NCc1cccc(Br)c1`, with 677 s.
Take `CCc1ccc(NC(=O)CSc2nccc(N3CCN(c4cc(C)ccc4C)CC3)n2)cc1`: the RP-LC retention time came out at 995 s.
For the molecule `COc1ccccc1-n1nnc(C(=O)N2CCc3ccccc32)c1-c1ccccn1`, the RP-LC retention time turned out to be 836 s.
`CCOC(=O)c1[nH]c(C)c(CCC(=O)N2CCC(C(=O)NC(C)c3ccccc3)CC2)c1C` (configuration not stated) registered an RP-LC retention time of 792 s.
In the case of `CC1CN(c2nc3ccccc3nc2SCC(=O)N2CCOCC2)CC(C)O1` (configuration not stated) it was 882 s; in that of `Cc1ccc(F)c2c(=O)c3c([nH]c12)CCN(CC(=O)Nc1ccc(Cl)cc1)C3`, 646 s.
In the case of `CC1(C(=O)NC2CCCCCC2)Cn2c(cc3occc32)C(=O)N1Cc1cccnc1` (configuration not stated) it was 661 s; in that of `Cc1cccc(CN2CCC(CNC(=O)C3CCCN(c4cc(=O)n(C)c(=O)n4C)C3)CC2)c1` (configuration not stated), 599 s; in that of `O=C(NCc1cc(F)ccc1F)C1CCN(c2cncnc2N2CCOCC2)CC1`, 619 s.
`Cc1nc(-c2noc(-c3cccc(F)c3)n2)cn1CC(=O)Nc1cccc(Cl)c1` yielded an RP-LC retention time of 957 s.
Take `COc1ccc(-c2nc(N(C)C3CCCCC3)c3ccccc3n2)cc1`: the RP-LC retention time is 918 s.
In the case of `COc1ccccc1-c1nc(Cn2nnc(-c3nc(-c4ccc(C)c(C)c4)no3)c2C)c(C)o1` it was 1240 s.
In the case of `Cc1ccc2[nH]cc(CCN3CC(C(=O)Nc4ccccc4C)CC3=O)c2c1` (configuration not stated) it was 798 s.
Then `CCSc1nc2ccc(NS(=O)(=O)c3ccc(F)cc3)cc2s1`, with 1010 s; and `Cn1cc(-c2ccncc2)cc1C(=O)N1CCN(c2ccc(Cl)cc2)CC1`, with 682 s; and `CCOc1cccc(-c2noc(Cn3c(=O)n(-c4cccc(OC)c4)c(=O)c4sccc43)n2)c1`, with 970 s.
`CCNc1cc(N2CCCC(CCC(=O)N(C)CCc3ccccn3)C2)ncn1` (configuration not stated) yielded an RP-LC retention time of 556 s.
Molecule `O=C(NC1CCCC1)C1CCCN(c2ccc(=O)n(-c3cccc(Cl)c3)n2)C1` (configuration not stated) gave an RP-LC retention time of 845 s.
In the case of `Cc1ccc(-c2nc3n(CC(=O)NC(C)C)c4c(c(=O)n3n2)CCC4)cc1` it was 733 s; in that of `O=C(c1ccc(-c2cccs2)nc1)N1CCN(C2CCCCC2)CC1`, 711 s; in that of `CCC(=O)N1CCN(c2nc3c(s2)CC(C(=O)NCC(C)C)CC3)CC1` (configuration not stated), 534 s.
`COC(=O)c1ccc2c(=O)n(Cc3cccc(OC)c3)c(N3CCOCC3)nc2c1` returned an RP-LC retention time of 936 s.
In the case of `O=S(=O)(c1ccc2c(c1)-c1oncc1CO2)N1CCN(C(c2ccccc2)c2ccccc2)CC1` it was 1130 s; in that of `CCOc1cccc(-c2noc(Cn3c(=O)n(-c4ccc(Cl)cc4)c(=O)c4sccc43)n2)c1`, 1130 s; in that of `CCCOCCOC(=O)C1=C(C)NC2=C(C(=O)CCC2)C1c1ccc(OC)cc1OC` (configuration not stated), 792 s.
Molecule `COc1ccc(OC)c2sc(NC(=O)CS(=O)(=O)c3ccc(Cl)cc3)nc12` came in with an RP-LC retention time of 854 s.
On to `CSc1ccccc1NC(=O)c1ccc(COc2ccc(C)cc2)o1`, for which the RP-LC retention time worked out at 1120 s.
`CCN1CCCn2cc(S(=O)(=O)Nc3cc(F)cc(F)c3)cc2C1=O` came in with an RP-LC retention time of 768 s.
In the case of `Cc1ccc(CNC(=O)c2nnc(-c3ccc(S(=O)(=O)N(C)C)cc3)o2)cc1C` it was 947 s; in that of `CC(=O)N[C@@H]1CN(C(=O)COc2ccc(Cl)cc2)C[C@H]1CO`, 633 s; in that of `O=C(Nc1nnc(Cc2ccc3c(c2)OCCO3)o1)c1sc2ccccc2c1Cl`, 950 s.
With `COc1ccc(-c2ccnc3nc(-c4cccs4)nn23)cc1`, the RP-LC retention time was determined as 892 s.
In the case of `CC1(C)CC(=O)c2cn(-c3ccccc3)c(=O)c(C(=O)NC3CC3)c2C1` it was 963 s; in that of `CCC(NC(=O)C1CCN(c2nnc(-c3ccc(OC)cc3)o2)CC1)c1cccs1` (configuration not stated), 863 s.
In the case of `COCCNC(=O)N1c2ccccc2NC2=C(C(=O)CC(C)(C)C2)C1c1ccc(F)cc1` (configuration not stated) it was 749 s; in that of `Cc1cc2c(cc1S(=O)(=O)N1CCCC1C(=O)Nc1ccccc1F)OC(C)C(=O)N2` (configuration not stated), 809 s.
